Test results published in PubChem BioAssay (NCI).
“And” between values parts separate entries of the source, which are not always exact repeats. Equal entries are not always repeated.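 Five concentrations, 48 hours, 96-well plates. GI50 = concentration required for 50% inhibition of growth. TGI: total growth inhibition.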 Where a SMILES comes first, the peptide text is derived from it. The star is where a group is joined. Boc = CC(C)(C)OC(=O)*; OBn = c1ccc(CO*)cc1; Bn = c1ccc(C*)cc1

Key:
Test in all cases: DTP human tumour cell line panel, 48 h
[1] = system: ACHN renal
[2] = system: HS 578T breast
[3] = system: UACC-62 melanoma
[4] = system: COLO 205 colon
[5] = system: M14 melanoma
[6] = system: UO-31 renal
[7] = system: K-562 leukemia
[8] = system: HCC-2998 colon
[9] = system: CCRF-CEM leukemia
[10] = system: HL-60(TB) leukemia
[11] = system: NCI-H522 lung

SMILES	GI50 [1]	TGI [1]	TGI [2]	GI50 [3]	TGI [3]	GI50 [4]	TGI [4]	GI50 [5]	TGI [5]	GI50 [6]	TGI [6]	TGI [7]	GI50 [8]	TGI [8]	GI50 [9]	TGI [9]	GI50 [10]	TGI [10]	TGI [11]	GI50 [11]
CC(=O)OCC1OC(n2c(-c3ccccc3)c(N=Nc3ccc(Cl)cc3)c(C)c(C#N)c2=S)C(OC(C)=O)C(OC(C)=O)C1OC(C)=O (centres undefined)	6.95 µM and 34.6 µM	> 100 µM	94 µM and 96.9 µM	3.2 µM and 14.4 µM	15 µM and > 100 µM	28 µM and > 100 µM	57.5 µM and > 100 µM	9.33 µM and 71.1 µM	32.4 µM and > 100 µM	5.87 µM and 47.3 µM	27.1 µM and > 100 µM	28.6 µM and > 100 µM	18 µM and > 100 µM	63 µM and > 100 µM	4.1 µM and 13.7 µM	54.3 µM and > 100 µM	23 µM and 8.03 µM	> 100 µM		
Cc1ccc(S(=O)(=O)OC2CN3CCC2CC3)cc1 (centres undefined)		> 100 µM	> 100 µM		> 100 µM		> 100 µM		> 100 µM		> 100 µM	> 100 µM				> 100 µM		> 100 µM	> 100 µM	
CCOC(=O)Cc1csc(/N=C\c2c(O)c3ccccc3oc2=O)n1		> 100 µM	> 100 µM		> 100 µM		> 100 µM		> 100 µM		> 100 µM					85.9 µM		7.43 µM	42.4 µM	
CC(C)(C)NCC(O)COc1cccc2[nH]c(C#N)cc12 (centres undefined)		> 100 µM	> 100 µM		> 100 µM		> 100 µM		> 100 µM		> 100 µM							> 100 µM	> 100 µM	
COC(=O)C1Cc2c([nH]c3ccccc23)-c2[nH]c3ccccc3c2CC(NC(C)=O)C(=O)NCC(=O)N1 (centres undefined)		> 100 µM	> 100 µM		> 100 µM		> 100 µM				> 100 µM	> 100 µM		> 100 µM		> 100 µM			> 100 µM	
COc1ccc2cc(C(=O)NCCc3ccccc3)ccc2c1OC		> 100 µM	> 100 µM		> 100 µM		> 100 µM		> 100 µM			> 100 µM		> 100 µM						
CC(C)CC(NC(=O)C(Cc1ccccc1)NC(=O)C(COCc1ccccc1)NC(=O)OC(C)(C)C)C(=O)OCc1ccccc1 (stereo not drawn) (Boc-Ser(Bn)-Phe-Leu-OBn; configuration not given here)		33.1 µM			33 µM		43.9 µM		> 100 µM		> 100 µM	45.2 µM		27.8 µM		63.7 µM		15.3 µM	31.9 µM	
COc1ccc(N(C(=O)OC(C)(C)C)[C@@H]2C(C)=C[C@H]([S@@](=O)c3ccc(C)cc3)[C@@H]3C(=O)N(C)C(=O)[C@@H]32)cc1		43.8 µM	42.9 µM		48.4 µM		31 µM		> 100 µM		30.1 µM	> 100 µM				> 100 µM		47.5 µM	18.5 µM	
NC12c3c4cccc3Oc3cccc(c31)Oc1cccc(c12)O4		> 50 µM	> 50 µM		> 50 µM		> 50 µM		> 50 µM		> 50 µM	> 50 µM				> 50 µM		> 50 µM	> 50 µM	
CC(=O)NC1C(OCC(=O)NC(C)C(=O)NC(CCC(=O)NCCCCCNc2ccc([N+](=O)[O-])c3[nH]c4ccccc4c(=O)c23)C(N)=O)C(O)C(CO)OC1(C)OCc1ccccc1 (centres undefined)		> 50 µM	> 50 µM		> 50 µM		> 50 µM		> 50 µM		> 50 µM	> 50 µM		> 50 µM		> 50 µM			> 50 µM	
CC(=O)OC1COC(N2C(=O)C(=O)c3cc(Br)c([N+](=O)[O-])cc32)C(OC(C)=O)C1OC(C)=O (centres undefined)		> 100 µM			> 100 µM		> 100 µM		> 100 µM			72.4 µM		> 100 µM		89.2 µM		> 100 µM	> 100 µM	
CCCCCCc1cc(C=O)sc1-c1ccc(-c2sc(-c3ccc(-c4ccc(-c5cc(CCCCCC)c(-c6ccc(-c7sc(C=O)cc7CCCCCC)s6)s5)s4)s3)cc2CCCCCC)s1		> 100 µM			> 100 µM		> 100 µM		> 100 µM		> 100 µM	> 100 µM		> 100 µM		> 100 µM		> 100 µM	> 100 µM	
N#CC(C(=O)c1ccccc1F)c1nc2cc(C(F)(F)F)ccc2s1 (centres undefined)		94.6 µM					49.5 µM												40.5 µM	
Cc1cccc(Nc2cn(CCOc3ccccc3)c(=O)[nH]c2=O)c1		> 100 µM	> 100 µM		> 100 µM		36.8 µM		> 100 µM		> 100 µM	> 100 µM		91.6 µM		> 100 µM				
N#Cc1nn(-c2ccc(Cl)cc2)c(N)c2c(=N)n3nc(-c4ccccc4)cc3nc12		> 100 µM			> 35.7 µM				> 100 µM	31.5 µM	98.5 µM	> 100 µM		0.0134 µM		> 100 µM		> 100 µM	> 100 µM	36.4 µM
O=[N+]([O-])c1ccccc1S(=O)(=O)N1CCCc2cc(Cl)ccc21		> 100 µM	> 100 µM		> 100 µM		> 100 µM		> 100 µM		> 100 µM	> 75.2 µM		> 100 µM		> 100 µM		72.2 µM		
CCOC(=O)c1ccc(N=C/C=C(\Nc2ccc(C(=O)OCC)cc2)c2ccc3ccccc3c2)cc1		> 100 µM	96.3 µM		30.5 µM		32.6 µM		59 µM		> 100 µM	56.7 µM				46.5 µM		70.8 µM	> 100 µM	
CC(C)=NN/C(=N\S(=O)(=O)c1cc(Cl)c(Oc2ccc([N+](=O)[O-])cc2Cl)c(Cl)c1)Nc1ccc(Cl)cc1			> 100 µM		> 100 µM		> 100 µM		> 100 µM		> 100 µM	> 100 µM				> 100 µM		> 100 µM	> 100 µM	
COc1cccc(-n2nnc3c(N)nc(N)nc32)c1		> 100 µM			> 100 µM		> 100 µM		> 100 µM			> 100 µM				> 100 µM		> 100 µM	> 100 µM	
O=C(O)CCCN1CCCCC1		> 100 µM	> 100 µM		> 100 µM				> 100 µM		> 100 µM	> 100 µM		> 100 µM		> 100 µM			> 100 µM	
